Data: patent US8476253B2, “Amide derivative” (Daiichi Sankyo Company, Limited, priority 2009, dated 2013)
Counter-ions that a name gives are not always drawn. Like-named read-outs stand apart in the source and are kept apart here.

Assays:
[1] = target: T1, neurokinin NK2 receptor (Cavia porcellus, UniProt Q64077); test: Effect of suppressing neurokinin A-induced airway contraction (in vivo, intratracheal administration); set-up: species or system guinea pig; details: guinea pigs, intratracheal administration 60 minutes before 4 μg/kg i.v. NKA, AUC of increase in airway pressure over 10 minutes; for ED50: guinea pig, read-out: ID50 (the source's name)
T1 construct: Using healthy guinea pigs (body weight, 350 to 550 g; Hartley male guinea pigs); from tissue; host or cells: live anaesthetised Hartley male guinea pigs (airway, in vivo)
T1 sequence (Q64077 1-402): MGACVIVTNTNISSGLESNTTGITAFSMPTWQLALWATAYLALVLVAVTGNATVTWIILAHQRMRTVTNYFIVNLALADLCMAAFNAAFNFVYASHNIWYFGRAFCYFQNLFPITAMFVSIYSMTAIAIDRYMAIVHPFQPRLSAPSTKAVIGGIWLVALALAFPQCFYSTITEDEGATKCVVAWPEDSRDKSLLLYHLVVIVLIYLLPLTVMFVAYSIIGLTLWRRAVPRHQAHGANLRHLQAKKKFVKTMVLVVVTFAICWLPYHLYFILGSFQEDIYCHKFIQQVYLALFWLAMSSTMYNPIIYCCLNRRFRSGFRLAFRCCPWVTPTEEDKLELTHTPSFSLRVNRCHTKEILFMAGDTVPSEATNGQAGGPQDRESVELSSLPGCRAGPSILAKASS
Method in brief: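 Anesthetized, gallamine-paralysed, ventilated male Hartley guinea pigs received compound in 5% glucose intratracheally 60 minutes before 4 μg/kg NKA i.v. AUC of airway pressure increase over 10 minutes gave inhibition versus vehicle controls, expressed as ID50.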

[2] = target: T2, human M3 receptor (Homo sapiens, UniProt P20309); test: Test for binding to human M3 receptor
T2 construct: expressed in transfected cells; host or cells: CHO cells
T2 sequence (P20309 whole entry): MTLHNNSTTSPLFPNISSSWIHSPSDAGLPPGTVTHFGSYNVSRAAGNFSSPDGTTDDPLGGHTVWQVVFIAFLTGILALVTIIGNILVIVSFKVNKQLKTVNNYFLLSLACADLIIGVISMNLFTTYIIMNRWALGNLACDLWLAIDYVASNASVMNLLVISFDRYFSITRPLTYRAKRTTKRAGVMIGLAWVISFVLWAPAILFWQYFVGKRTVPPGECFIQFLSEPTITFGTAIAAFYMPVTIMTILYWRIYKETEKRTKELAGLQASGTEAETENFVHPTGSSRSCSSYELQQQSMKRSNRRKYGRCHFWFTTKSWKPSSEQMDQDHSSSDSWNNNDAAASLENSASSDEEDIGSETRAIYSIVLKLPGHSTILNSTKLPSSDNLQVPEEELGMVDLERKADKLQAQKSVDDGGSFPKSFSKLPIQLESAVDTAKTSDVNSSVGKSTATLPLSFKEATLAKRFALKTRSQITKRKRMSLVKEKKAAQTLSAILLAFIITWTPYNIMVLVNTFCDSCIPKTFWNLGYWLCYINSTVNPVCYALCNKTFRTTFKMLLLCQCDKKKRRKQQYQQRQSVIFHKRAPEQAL
Method in brief: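 CHO-cell crude membranes expressing human M3 were incubated with [N-methyl-3H]-(−)-scopolamine methyl chloride in 50 mM Tris-HCl, 0.5 mM EDTA, pH 7.4, for 60 min at room temperature. Bound ligand was collected on PEI-pretreated glass-fibre filters and counted by liquid scintillation. Ki was calculated from IC50 and the radioligand Kd.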

[3] = target: T3, human NK2 receptor (Homo sapiens, UniProt P21452); test: Test for binding to human NK2 receptor
T3 construct: expressed in transfected cells; host or cells: COS cells
T3 sequence (P21452 1-398): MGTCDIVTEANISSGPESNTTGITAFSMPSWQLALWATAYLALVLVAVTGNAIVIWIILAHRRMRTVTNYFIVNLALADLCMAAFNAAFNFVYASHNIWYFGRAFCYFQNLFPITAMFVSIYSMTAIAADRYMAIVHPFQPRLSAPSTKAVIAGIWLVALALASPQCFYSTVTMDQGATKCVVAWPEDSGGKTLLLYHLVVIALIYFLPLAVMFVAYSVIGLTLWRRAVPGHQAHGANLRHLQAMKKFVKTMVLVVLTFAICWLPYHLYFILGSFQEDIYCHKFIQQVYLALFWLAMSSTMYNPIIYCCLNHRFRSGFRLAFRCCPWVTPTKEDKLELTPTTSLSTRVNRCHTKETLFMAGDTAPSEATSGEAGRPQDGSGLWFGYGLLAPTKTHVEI
Method in brief: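 Radioligand binding with [^3H]SR 48968 on cryopreserved COS cells expressing human NK2 receptor (5.0×10^5 cells/mL), in 50 mM Tris-HCl pH 7.4 with BSA, MnCl2 and protease inhibitors. Bound label collected on PEI-treated GF/B filters, counted by liquid scintillation; Ki derived from IC50 and radioligand Kd.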

[4] = CHO cells expressing human M3 receptor, [N-methyl-3H]-(-)-Scopolamine methyl chloride 0.5 nM, Ki from IC50 and Kd, read-out: Ki
[5] = COS cells expressing human NK2 receptor, [3H]SR 48968 1 nM, Ki from IC50 and Kd, read-out: Ki

## CN(CCN1CCC(OC(=O)Nc2ccccc2-c2ccccc2)CC1)C(=O)CCCCCNc1ccc(C(=O)N(C)CCCN(C)C(=O)CO[C@H]2Cc3ccccc3C23CCN(CC[C@@]2(c4ccc(F)cc4)CN(C(=O)c4cc(C(F)(F)F)cc(C(F)(F)F)c4)CO2)CC3)cc1 [Example 72, 1-(2-{[6-({4-[{3-[({[(2S)-1′-{2-[(5R)-3-[3,5-Bis(trifluoromethyl)benzoyl]-5-(4-fluorophenyl)-1,3-oxazolidin-5-yl]ethyl}-2,3-dihydrospiro[indene-1,4′-piperidin]-2-yl]oxy}acetyl)(methyl)amino]propyl}(methyl)carbamoyl]phenyl}amino)hexanoyl](methyl)amino}ethyl)piperidin-4-yl biphenyl-2-ylcarbamate]
[1]
  ED50: 0.0151 mg/kg
[2]; [4]
  Ki: 1.6 nM
[3]; [5]
  Ki: 0.52 nM

## CN(CCCCCC(=O)N(C)CCN1CCC(OC(=O)Nc2ccccc2-c2ccccc2)CC1)Cc1ccc(C(=O)N(C)CCCN(C)C(=O)CO[C@H]2Cc3ccccc3C23CCN(CC[C@@]2(c4ccc(F)cc4)CN(C(=O)c4cc(C(F)(F)F)cc(C(F)(F)F)c4)CO2)CC3)cc1 [Example 74, 1-{2-[{6-[{4-[{3-[({[(2S)-1′-{2-[(5R)-3-[3,5-Bis(trifluoromethyl)benzoyl]-5-(4-fluorophenyl)-1,3-oxazolidin-5-yl]ethyl}-2,3-dihydrospiro[indene-1,4′-piperidin]-2-yl]oxy}acetyl)(methyl)amino]propyl}(methyl)carbamoyl]benzyl}(methyl)amino]hexanoyl}(methyl)amino]ethyl}piperidin-4-yl biphenyl-2-ylcarbamate]
[1]
  ED50: 0.0127 mg/kg
[2]; [4]
  Ki: 0.32 nM
[3]; [5]
  Ki: 0.14 nM

## CN(CCN1CCC(OC(=O)Nc2ccccc2-c2ccccc2)CC1)C(=O)CCCCCN(C)c1ccc(C(=O)N(C)CCCN(C)C(=O)CO[C@H]2Cc3ccccc3C23CCN(CC[C@@]2(c4ccc(F)cc4)CN(C(=O)c4cc(C(F)(F)F)cc(C(F)(F)F)c4)CO2)CC3)cc1 [Example 76, 1-{2-[{6-[{4-[{3-[({[(2S)-1′-{2-[(5R)-3-[3,5-Bis(trifluoromethyl)benzoyl]-5-(4-fluorophenyl)-1,3-oxazolidin-5-yl]ethyl}-2,3-dihydrospiro[indene-1,4′-piperidin]-2-yl]oxy}acetyl)(methyl)amino]propyl}(methyl)carbamoyl]phenyl}(methyl)amino]hexanoyl}(methyl)amino]ethyl}piperidin-4-yl biphenyl-2-ylcarbamate]
[1]
  ED50: 0.0176 mg/kg
[2]; [4]
  Ki: 3.4 nM
[3]; [5]
  Ki: 1 nM

## CN(CCN1CCC(OC(=O)Nc2ccccc2-c2ccccc2)CC1)C(=O)CCCCCNc1ccc(N(C)C(=O)CCCN(C)C(=O)CO[C@H]2Cc3ccccc3C23CCN(CC[C@@]2(c4ccc(F)cc4)CN(C(=O)c4cc(C(F)(F)F)cc(C(F)(F)F)c4)CO2)CC3)cc1 [Example 84, 1-(2-{[6-({4-[{-4-[({[(2S)-1′-{2-[(5R)-3-[3,5-Bis(trifluoromethyl)benzoyl]-5-(4-fluorophenyl)-1,3-oxazolidin-5-yl]ethyl}-2,3-dihydrospiro[indene-1,4′-piperidin]-2-yl]oxy}acetyl)(methyl)amino]butanoyl}(methyl)amino]phenyl}amino)hexanoyl](methyl)amino}ethyl)piperidin-4-yl biphenyl-2-ylcarbamate trihydrochloride]
[1]
  ED50: 0.0221 mg/kg
[2]
  Ki: 1.2 nM
[3]
  Ki: 0.89 nM

## CN(CCN1CCC(OC(=O)Nc2ccccc2-c2ccccc2)CC1)C(=O)CCCCCNc1nc2ccc(C(=O)N(C)CCCN(C)C(=O)CO[C@H]3Cc4ccccc4C34CCN(CC[C@@]3(c5ccc(F)cc5)CN(C(=O)c5cc(C(F)(F)F)cc(C(F)(F)F)c5)CO3)CC4)cc2s1 [Example 93, 1-(2-{[6-({6-[{3-[({[(2S)-1′-{2-[(5R)-3-[3,5-Bis(trifluoromethyl)benzoyl]-5-(4-fluorophenyl)-1,3-oxazolidin-5-yl]ethyl}-2,3-dihydrospiro[indene-1,4′-piperidin]-2-yl]oxy}acetyl)(methy)amino]propyl}(methyl)carbamoyl]-1,3-benzothiazol-2-yl}amino)hexanoyl](methyl)amino}ethyl)piperidin-4-yl biphenyl-2-ylcarbamate]
[1]
  ID50: 43.7 µg/kg
[2]; [4]
  Ki: 0.6 nM
[3]; [5]
  Ki: 0.55 nM

## CN(CCN1CCC(OC(=O)Nc2ccccc2-c2ccccc2)CC1)C(=O)CCNc1ccc(C(=O)N(C)CCCN(C)C(=O)CO[C@H]2Cc3ccccc3C23CCN(CC[C@@]2(c4ccc(F)cc4)CN(C(=O)c4cc(C(F)(F)F)cc(C(F)(F)F)c4)CO2)CC3)cc1 [Example 94, 1-{2-[(N-{4-[{3-[({[(2S)-1′-{2-[(5R)-3-[3,5-Bis(trifluoromethyl)benzoyl]-5-(4-fluorophenyl)-1,3-oxazolidin-5-yl]ethyl}-2,3-dihydrospiro[indene-1,4′-piperidin]-2-yl]oxy}acetyl)(methyl)amino]propyl}(methyl)carbamoyl]phenyl}-β-alanyl)(methyl)amino]ethyl}piperidin-4-yl biphenyl-2-ylcarbamate]
[1]
  ED50: 0.0431 mg/kg
[2]; [4]
  Ki: 2 nM
[3]; [5]
  Ki: 0.75 nM

## CN(CCN1CCC(OC(=O)Nc2ccccc2-c2ccccc2)CC1)C(=O)CCN(C)c1ccc(C(=O)N(C)CCCN(C)C(=O)CO[C@H]2Cc3ccccc3C23CCN(CC[C@@]2(c4ccc(F)cc4)CN(C(=O)c4cc(C(F)(F)F)cc(C(F)(F)F)c4)CO2)CC3)cc1 [Example 95, 1-{2-[(N-{4-[{3-[({[(2S)-1′-{2-[(5R)-3-[3,5-Bis(trifluoromethyl)benzoyl]-5-(4-fluorophenyl)-1,3-oxazolidin-5-yl]ethyl}-2,3-dihydrospiro[indene-1,4′-piperidin]-2-yl]oxy}acetyl)(methy)amino]propyl}(methyl)carbamoyl]phenyl}-N-methyl-β-alanyl)(methyl)amino]ethyl}piperidin-4-yl biphenyl-2-ylcarbamate]
[1]
  ED50: 0.039 mg/kg
[2]; [4]
  Ki: 2.1 nM
[3]; [5]
  Ki: 0.81 nM

## Cc1nc(NCCCCCC(=O)N(C)CCN2CCC(OC(=O)Nc3ccccc3-c3ccccc3)CC2)sc1C(=O)N(C)CCCN(C)C(=O)CO[C@H]1Cc2ccccc2C12CCN(CC[C@@]1(c3ccc(F)cc3)CN(C(=O)c3cc(C(F)(F)F)cc(C(F)(F)F)c3)CO1)CC2 [Example 105, 1-(2-{[6-({5-[{3-[({[(2S)-1′-{2-[(5R)-3-[3,5-Bis(trifluoromethyl)benzoyl]-5-(4-fluorophenyl)-1,3-oxazolidin-5-yl]ethyl}-2,3-dihydrospiro[indene-1,4′-piperidin]-2-yl]oxy}acetyl)(methyl)amino]propyl}(methyl)carbamoyl]-4-methyl-1,3-thiazol-2-yl}amino)hexanoyl](methyl)amino}ethyl)piperidin-4-yl biphenyl-2-ylcarbamate trihydrochloride]
[1]
  ED50: 0.0136 mg/kg
[2]
  Ki: 1.4 nM
[3]
  Ki: 0.85 nM

## CN(CCN1CCC(OC(=O)Nc2ccccc2-c2ccccc2)CC1)C(=O)CCCCCNc1ccc(C(=O)N2CCCN(C(=O)CO[C@H]3Cc4ccccc4C34CCN(CC[C@@]3(c5ccc(F)cc5)CN(C(=O)c5cc(C(F)(F)F)cc(C(F)(F)F)c5)CO3)CC4)CC2)cc1 [Example 110, 1-{2-[{6-[(4-{[4-({[(2S)-1′-{2-[(5R)-3-[3,5-Bis(trifluoromethyl)benzoyl]-5-(4-fluorophenyl)-1,3-oxazolidin-5-yl)ethyl}-2,3-dihydrospiro[indene-1,4′-piperidin]-2-yl]oxy}acetyl)-1,4-diazepan-1-yl]carbonyl}phenyl)amino]hexanoyl}(methyl)amino]ethyl}piperidin-4-yl biphenyl-2-ylcarbamate trihydrochloride]
[1]
  ED50: 0.0135 mg/kg
[2]
  Ki: 0.93 nM
[3]
  Ki: 0.6 nM
